From article PMC11151065, “Boosted Enzyme Activity via Encapsulation within Metal–Organic Frameworks with Pores Matching Enzyme Size and Shape” (Advanced Science, 2024)

Target: T1, cytochrome c (Cyt c) (Bos taurus, UniProt P62894)
T1 construct: gene CYCS; native holoprotein from cow heart (Sigma-Aldrich), free in solution
Experiment: absorbance of ABTS radical cation at […] nm
Type: biochemical
Settings: free enzyme; peroxidase activity with H2O2 co-substrate; room temperature

T1 sequence (P62894 2-105): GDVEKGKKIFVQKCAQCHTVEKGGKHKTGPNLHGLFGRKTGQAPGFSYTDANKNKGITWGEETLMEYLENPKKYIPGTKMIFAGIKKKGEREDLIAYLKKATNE

CCn1c(=NN=c2sc3cc(S(=O)(=O)O)ccc3n2CC)sc2cc(S(=O)(=O)O)ccc21 [ABTS, 2,2′‐azino‐bis (3‐ethylbenzothiazoline‐6‐sulfonic acid)]
absorbance of ABTS radical cation at 415 nm: peroxidase catalytic properties of Cyt c were utilized to oxidize ABTS to ABTS▪^+
